Laboratory results as given in patent US9549935B2, “Methods and compositions for treating migraines using noribogaine” (DemeRx, Inc., priority 2014, dated 2017).
“Also recorded” adds a separate entry of the source.

Columns and labels:
[1] = Pupillary miosis assessed by pupillometry in healthy volunteers; format: in vivo, human; conditions: 3-60 mg single oral doses vs placebo, up to 216 hours, p>0.9
Method: (§1) Pulse oximetry and capnography data were collected continuously using a GE Carescape B650 monitoring system from 2 hours prior to dosing and until six hours after dosing, and thereafter at 12, 24, 48 and 72 hours post-dosing. Additional oximetry data were collected at 120, 168 and 216 hours. Pupillary miosis was assessed by pupillometry. Dark-adapted pupil diameter was measured in triplicate using a Neuroptics PLR-200 pupillometer under standardized light intensity (<5 lux) pre-dose, and at 2, 4, 6, 12, 24, 48, 72, 96, 120, 168 and 216 hours post-dosing.
Summary statistics (means, standard deviations, and coefficients of variation) were determined for each dose group for safety laboratory test data, ECG and pharmacokinetic parameters, and pharmacodynamic variables. Categorical variables were analysed using counts and percentages. Dose-proportionality of AUC and Cmax was assessed using linear regression. The effect of dose on pharmacodynamic parameter values over time was assessed using two-factor analysis of variance (ANOVA). Pairwise comparisons (with Tukey-Kramer adjustment) between each dose group to the placebo were conducted at each time point using the least squares estimates obtained from the ANOVA, using SAS Proc Mixed (SAS ver 6.0).

[2] = Safety and tolerability in healthy volunteers (adverse events, vital signs, ECG); format: in vivo, human
Method: as §1
Safety and tolerability of noribogaine were tested in the group of volunteers from Example 1. Cold pressor testing was conducted in 1° C. water according to the method of Mitchell et al. (J Pain 5:233-237, 2004) pre-dose, 6, 24, 48, 72 and 216 hours post-dosing. Safety evaluations included clinical monitoring, recording of adverse events (AEs), safety laboratory tests, vital signs, ECG telemetry from −2 h to 6 h after dosing, and 12-lead electrocardiograms (ECGs) up to 216 hours post-dosing.

[3] = Treatment emergent adverse events in opioid-dependent participants (Phase IB)
[4] = 3 mg dose group, healthy volunteers
[5] = 10 mg dose group, healthy volunteers
[6] = 30 mg dose group, healthy volunteers

CC[C@H]1CC2C[C@H]3c4[nH]c5ccc(O)cc5c4CCN(C2)C13 [Noribogaine, noribogaine]
pupillary constriction (dark-adapted pupil diameter) [1]: no evidence of pupillary constriction
Adverse events, Mild [2, 4]: Dizziness; also recorded: Epistaxis; also recorded: Headache; also recorded: Back pain
Adverse events, Moderate [2, 4]: Headache
number of adverse events reported [2, 4]: five adverse events were reported by two subjects
Adverse events, Mild [2, 5]: Headache
number of adverse events reported [2, 5]: one adverse event was reported by single subjects
Adverse events, Mild [2, 6]: Headache
number of adverse events reported [2, 6]: one adverse event was reported by single subjects
changes in oximetry, capnography, respiratory rate ([2]; 3-60 mg, healthy volunteers): no changes in oximetry or capnography, or changes in respiratory rate
changes in vital signs or safety laboratory tests ([2]; 3-60 mg, healthy volunteers): no changes in vital signs or safety laboratory tests of note
QTcF values >500 msec ([2]; 3-60 mg, healthy volunteers, ECG up to 216 hours): no QTcF values >500 msec at any time
intensity of adverse events ([2]; all dose groups, healthy volunteers): mild-moderate intensity
single increase in QTcF ([2]; one subject dosed with 10 mg, 24 hours post-dosing): > 60 ms
frequency of headaches ([3]; 60 mg treatment group): frequent
frequency of headaches ([3]; 120 mg and 180 mg dose groups): attenuated
hallucinatory effects ([3]; 60-180 mg, opioid-dependent participants): no hallucinatory effects
Treatment Emergent AE: Catheter Site Infection ([3]; single 60 mg dose, N = 6): 0
Treatment Emergent AE: Catheter Site Pain ([3]; single 60 mg dose, N = 6): 0
Treatment Emergent AE: Catheter Site Related Reaction ([3]; single 60 mg dose, N = 6): 0
Treatment Emergent AE: Cellulitis ([3]; single 60 mg dose, N = 6): 0
Treatment Emergent AE: Diarrhoea ([3]; single 60 mg dose, N = 6): 0
Treatment Emergent AE: Dry Mouth ([3]; single 60 mg dose, N = 6): 0
Treatment Emergent AE: Ear and Labyrinth Disorders ([3]; single 60 mg dose, N = 6): 0
Treatment Emergent AE: Epistaxis ([3]; single 60 mg dose, N = 6): 0
Treatment Emergent AE: Euphoric Mood ([3]; single 60 mg dose, N = 6): 0
Treatment Emergent AE: General Disorders and Administration Site Conditions ([3]; single 60 mg dose, N = 6): 0
Treatment Emergent AE: Hyperaesthesia ([3]; single 60 mg dose, N = 6): 0
Treatment Emergent AE: Infections and Infestations ([3]; single 60 mg dose, N = 6): 0
Treatment Emergent AE: Limb Discomfort ([3]; single 60 mg dose, N = 6): 0
Treatment Emergent AE: Malaise ([3]; single 60 mg dose, N = 6): 0
Treatment Emergent AE: Nausea ([3]; single 60 mg dose, N = 6): 0
Treatment Emergent AE: Oropharyngeal Pain ([3]; single 60 mg dose, N = 6): 0
Treatment Emergent AE: Pseudoparalysis ([3]; single 60 mg dose, N = 6): 0
Treatment Emergent AE: Respiratory, Thoracic and Mediastinal Disorders ([3]; single 60 mg dose, N = 6): 0
Treatment Emergent AE: Rhinorrhoea ([3]; single 60 mg dose, N = 6): 0
Treatment Emergent AE: Skin Discomfort ([3]; single 60 mg dose, N = 6): 0
Treatment Emergent AE: Skin Irritation ([3]; single 60 mg dose, N = 6): 0
Treatment Emergent AE: Skin and Subcutaneous Tissue Disorders ([3]; single 60 mg dose, N = 6): 0
Treatment Emergent AE: Somnoience ([3]; single 60 mg dose, N = 6): 0
Treatment Emergent AE: Tinnitus ([3]; single 60 mg dose, N = 6): 0
Treatment Emergent AE: Tremor ([3]; single 60 mg dose, N = 6): 0
Treatment Emergent AE: Urinary Tract Infection ([3]; single 60 mg dose, N = 6): 0
Treatment Emergent AE: Vomiting ([3]; single 60 mg dose, N = 6): 0
Treatment Emergent AE: Back Pain ([3]; single 120 mg dose, N = 6): 0
Treatment Emergent AE: Catheter Site Infection ([3]; single 120 mg dose, N = 6): 0
Treatment Emergent AE: Catheter Site Related Reaction ([3]; single 120 mg dose, N = 6): 0
Treatment Emergent AE: Depressed Mood ([3]; single 120 mg dose, N = 6): 0
Treatment Emergent AE: Dry Eye ([3]; single 120 mg dose, N = 6): 0
Treatment Emergent AE: Dyspepsia ([3]; single 120 mg dose, N = 6): 0
Treatment Emergent AE: Euphoric Mood ([3]; single 120 mg dose, N = 6): 0
Treatment Emergent AE: Limb Discomfort ([3]; single 120 mg dose, N = 6): 0
Treatment Emergent AE: Malaise ([3]; single 120 mg dose, N = 6): 0
Treatment Emergent AE: Musculoskeletal and Connective Tissue Disorders ([3]; single 120 mg dose, N = 6): 0
Treatment Emergent AE: Psychiatric Disorders ([3]; single 120 mg dose, N = 6): 0
Treatment Emergent AE: Somnoience ([3]; single 120 mg dose, N = 6): 0
Treatment Emergent AE: Urinary Tract Infection ([3]; single 120 mg dose, N = 6): 0
Treatment Emergent AE: Catheter Site Infection ([3]; single 180 mg dose, N = 6): 0
Treatment Emergent AE: Catheter Site Pain ([3]; single 180 mg dose, N = 6): 0
Treatment Emergent AE: Depressed Mood ([3]; single 180 mg dose, N = 6): 0
Treatment Emergent AE: Diarrhoea ([3]; single 180 mg dose, N = 6): 0
Treatment Emergent AE: Dry Eye ([3]; single 180 mg dose, N = 6): 0
Treatment Emergent AE: Dyspepsia ([3]; single 180 mg dose, N = 6): 0
Treatment Emergent AE: Ear and Labyrinth Disorders ([3]; single 180 mg dose, N = 6): 0
Treatment Emergent AE: Epistaxis ([3]; single 180 mg dose, N = 6): 0
Treatment Emergent AE: Euphoric Mood ([3]; single 180 mg dose, N = 6): 0
Treatment Emergent AE: Hyperaesthesia ([3]; single 180 mg dose, N = 6): 0
Treatment Emergent AE: Malaise ([3]; single 180 mg dose, N = 6): 0
Treatment Emergent AE: Oropharyngeal Pain ([3]; single 180 mg dose, N = 6): 0
Treatment Emergent AE: Pseudoparalysis ([3]; single 180 mg dose, N = 6): 0
Treatment Emergent AE: Psychiatric Disorders ([3]; single 180 mg dose, N = 6): 0
Treatment Emergent AE: Respiratory, Thoracic and Mediastinal Disorders ([3]; single 180 mg dose, N = 6): 0
Treatment Emergent AE: Rhinorrhoea ([3]; single 180 mg dose, N = 6): 0
Treatment Emergent AE: Skin Discomfort ([3]; single 180 mg dose, N = 6): 0
Treatment Emergent AE: Skin Irritation ([3]; single 180 mg dose, N = 6): 0
Treatment Emergent AE: Skin and Subcutaneous Tissue Disorders ([3]; single 180 mg dose, N = 6): 0
Treatment Emergent AE: Somnoience ([3]; single 180 mg dose, N = 6): 0
Treatment Emergent AE: Tinnitus ([3]; single 180 mg dose, N = 6): 0
Treatment Emergent AE: Tremor ([3]; single 180 mg dose, N = 6): 0
